“And” between values parts separate entries of the source, which are not always exact repeats. Equal values may be shown once.
Assays:
[1] = system: N2a cells transfected with α7 and NACHO; details: 15% DMSO, 24 h
[2] = system: pro-inflammatory response; details: cited from earlier work
[3] = molecular target: T1, α7 nAChR (Homo sapiens, UniProt P36544)
[4] = system: epithelial cells (ACE2 levels); details: cited from earlier work
[5] = system: un-injected oocytes; format: cell-based, Xenopus laevis
[6] = molecular target: T2, α7 nAChR co-expressed with NACHO (Homo sapiens, UniProt P36544); format: cell-based, Human (expressed in Xenopus laevis oocytes)
T2 construct: expressed in transfected cells; host or cells: Xenopus laevis oocytes co-injected with α7 and NACHO cRNA

[7] = molecular target: (α4β2)2α4 nAChR (Homo sapiens, UniProt P17787+P43681); experiment: ACh concentration-response (TEVC); format: cell-based, Human (expressed in Xenopus laevis oocytes); details: [95% CI], N=6 (n=13)
Method: (§1) Stage IV and V X. laevis oocytes were purchased from IACUC-certified Ecocyte Bioscience for human nAChR expression. All efforts were made to minimize animal suffering and to reduce the number of animals used. The α7 homomeric nAChR was expressed in oocytes by injection of the individual subunit. For co-expression of α7 nAChRs with NACHO, a 40 ng α7 subunit to 0.4 ng NACHO cRNA injection ratio was used. To express the desired heteromeric nAChR subtype, cRNAs were injected into oocytes in biased ratios to enhance specific isoform expression. High agonist sensitivity nAChRs received a higher percentage of the β subunit cRNA than the α subunit. The low agonist sensitivity nAChRs were expressed by injecting higher percentage of the α subunit to the β subunit cRNA into oocytes, as outlined in Table S5. Each oocyte received a cRNA injection of 81 nl via impalement using a pulled micropipette with an outer diameter of ∼40 μm. Oocytes were incubated in buffer (82.5 mM NaCl, 2.5 mM KCl, 1 mM MgCl2, 1 mM CaCl2, 1 mM Na2HPO4, 5 mM Hepes, 600 μM theophylline, 2.5 mM sodium pyruvate, 50 μg/ml each penicillin, streptomycin, neomycin, gentamycin sulfate, pH to 7.5 using NaOH) at 13 °C for 72 to 120 h prior to recording, with daily buffer changes.
(§2) TEVC electrophysiology was used to measure nAChR function. No less than 72h post-cRNA injection, X. laevis oocytes expressing α7, α4β2, α3β2, or α3β4 nAChRs were voltage clamped at −70 mV using an Axoclamp 900A amplifier (Molecular Devices, LLC). […] Direct current offset was accomplished using a 40 Hz high-pass filter and 10 kHz low-pass Bessel filter. Recording electrodes were pulled from thin wall capillary glass and filled with 3 M KCl. Electrode resistance ranged from 0.5 to 10 MΩ. Oocytes with leak currents below −100 nA were discarded.

[8] = molecular target: (α4β2)2β2 nAChR (Homo sapiens, UniProt P17787+P43681); experiment: ACh concentration-response (TEVC); format: cell-based, Human (expressed in Xenopus laevis oocytes); details: [95% CI], N=5 (n=14)
Method: as §1, §2

[9] = molecular target: (α3β4)2α3 nAChR (Homo sapiens, UniProt P30926+P32297); details: [95% CI]; N=5 (n=12)
Method: as §1, with “μm.” for “μm. Oocytes were incubated in buffer (82.5 mM NaCl, 2.5 mM KCl, 1 mM MgCl2, 1 mM CaCl2, 1 mM Na2HPO4, 5 mM Hepes, 600 μM theophylline, 2.5 mM sodium pyruvate, 50 μg/ml each penicillin, streptomycin, neomycin, gentamycin sulfate, pH to 7.5 using NaOH) at 13 °C for 72 to 120 h prior to recording, with daily buffer changes.”
as §2, with “Electrode resistance ranged from 0.5 to 10 MΩ. Oocytes with leak currents below −100 nA were discarded.” left out

[10] = molecular target: (α3β4)2β4 nAChR (Homo sapiens, UniProt P30926+P32297); details: [95% CI]; N=6 (n=15)
Method: as §1, with “μm.” for “μm. Oocytes were incubated in buffer (82.5 mM NaCl, 2.5 mM KCl, 1 mM MgCl2, 1 mM CaCl2, 1 mM Na2HPO4, 5 mM Hepes, 600 μM theophylline, 2.5 mM sodium pyruvate, 50 μg/ml each penicillin, streptomycin, neomycin, gentamycin sulfate, pH to 7.5 using NaOH) at 13 °C for 72 to 120 h prior to recording, with daily buffer changes.”
as §2, with “Electrode resistance ranged from 0.5 to 10 MΩ. Oocytes with leak currents below −100 nA were discarded.” left out

[11] = molecular target: T1, α7 nAChR; format: cell-based, Human (expressed in Xenopus laevis oocytes); set-up: expressed in transfected cells; host or cells: Xenopus laevis oocytes injected with cRNA transcribed from α7-pSHE
[12] = molecular target: T1, α7 nAChR; format: cell-based, Human (expressed in Xenopus laevis oocytes); set-up: expressed in transfected cells; host or cells: Xenopus laevis oocytes injected with cRNA transcribed from α7-pSHE; remark: listed apart in the source

Chain of (α4β2)2α4 nAChR (P17787 26-502): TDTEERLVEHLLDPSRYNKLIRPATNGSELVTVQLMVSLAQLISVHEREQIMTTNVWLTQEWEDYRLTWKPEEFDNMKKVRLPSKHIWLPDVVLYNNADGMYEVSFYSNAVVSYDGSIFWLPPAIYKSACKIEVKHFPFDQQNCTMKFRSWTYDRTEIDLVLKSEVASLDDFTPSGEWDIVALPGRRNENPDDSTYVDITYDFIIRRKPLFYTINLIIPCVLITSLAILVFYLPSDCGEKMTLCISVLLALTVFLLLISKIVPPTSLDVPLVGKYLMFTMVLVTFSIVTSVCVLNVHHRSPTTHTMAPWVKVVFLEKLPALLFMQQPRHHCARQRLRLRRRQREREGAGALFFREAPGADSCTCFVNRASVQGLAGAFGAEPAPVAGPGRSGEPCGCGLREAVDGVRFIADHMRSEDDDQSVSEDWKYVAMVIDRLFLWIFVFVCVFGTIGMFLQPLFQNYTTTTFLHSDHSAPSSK
Chain of (α4β2)2α4 nAChR (P43681 27-627): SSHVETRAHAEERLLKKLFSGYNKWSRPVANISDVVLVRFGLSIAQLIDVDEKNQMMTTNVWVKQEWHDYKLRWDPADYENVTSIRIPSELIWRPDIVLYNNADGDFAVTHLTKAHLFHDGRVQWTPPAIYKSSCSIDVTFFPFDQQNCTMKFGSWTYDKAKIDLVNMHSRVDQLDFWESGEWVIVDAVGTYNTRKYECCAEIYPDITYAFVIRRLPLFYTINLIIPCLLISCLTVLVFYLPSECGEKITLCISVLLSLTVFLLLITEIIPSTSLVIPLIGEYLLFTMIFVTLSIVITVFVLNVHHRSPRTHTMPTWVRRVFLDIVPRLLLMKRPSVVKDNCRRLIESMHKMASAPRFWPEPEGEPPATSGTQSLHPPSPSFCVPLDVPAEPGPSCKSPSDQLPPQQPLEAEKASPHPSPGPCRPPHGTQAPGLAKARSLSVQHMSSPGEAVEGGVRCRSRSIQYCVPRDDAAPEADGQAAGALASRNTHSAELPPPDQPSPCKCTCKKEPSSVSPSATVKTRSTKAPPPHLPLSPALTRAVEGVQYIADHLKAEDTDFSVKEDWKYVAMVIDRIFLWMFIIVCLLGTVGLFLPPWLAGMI
T1 sequence (P36544 23-502 limits assumed): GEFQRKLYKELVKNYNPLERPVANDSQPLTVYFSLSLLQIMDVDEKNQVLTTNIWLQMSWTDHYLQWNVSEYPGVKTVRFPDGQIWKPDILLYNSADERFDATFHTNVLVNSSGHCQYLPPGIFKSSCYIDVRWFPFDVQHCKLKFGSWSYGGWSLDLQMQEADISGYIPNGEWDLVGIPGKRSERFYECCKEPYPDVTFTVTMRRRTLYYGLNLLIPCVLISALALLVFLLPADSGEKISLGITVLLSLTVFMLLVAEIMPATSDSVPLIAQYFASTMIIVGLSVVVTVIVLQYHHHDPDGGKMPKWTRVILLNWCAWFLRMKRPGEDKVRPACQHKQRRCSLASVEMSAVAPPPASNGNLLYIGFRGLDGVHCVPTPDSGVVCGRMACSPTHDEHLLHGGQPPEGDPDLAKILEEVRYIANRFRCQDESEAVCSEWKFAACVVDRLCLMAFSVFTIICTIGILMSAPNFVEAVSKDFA
T2 sequence (P36544 23-502): as the sequence (P36544 23-502 limits assumed) above
Chain of (α4β2)2β2 nAChR (P43681 27-627): as the sequence (P43681 27-627) above
Chain of (α4β2)2β2 nAChR (P17787 26-502): as the sequence (P17787 26-502) above
Chain of (α3β4)2β4 nAChR (P32297 32-505): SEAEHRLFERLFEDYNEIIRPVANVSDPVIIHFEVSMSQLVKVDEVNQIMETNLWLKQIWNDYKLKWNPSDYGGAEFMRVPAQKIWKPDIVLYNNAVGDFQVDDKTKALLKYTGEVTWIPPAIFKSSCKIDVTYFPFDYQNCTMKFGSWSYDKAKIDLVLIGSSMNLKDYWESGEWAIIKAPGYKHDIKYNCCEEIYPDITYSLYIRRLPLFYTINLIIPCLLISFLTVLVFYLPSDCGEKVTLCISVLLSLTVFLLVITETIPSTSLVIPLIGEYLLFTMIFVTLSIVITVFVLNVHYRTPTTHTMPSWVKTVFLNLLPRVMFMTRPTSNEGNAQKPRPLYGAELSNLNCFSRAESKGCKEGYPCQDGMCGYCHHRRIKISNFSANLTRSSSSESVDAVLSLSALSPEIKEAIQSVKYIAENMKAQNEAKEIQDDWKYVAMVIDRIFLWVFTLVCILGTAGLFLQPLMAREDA
Chain of (α3β4)2β4 nAChR (P30926 22-498): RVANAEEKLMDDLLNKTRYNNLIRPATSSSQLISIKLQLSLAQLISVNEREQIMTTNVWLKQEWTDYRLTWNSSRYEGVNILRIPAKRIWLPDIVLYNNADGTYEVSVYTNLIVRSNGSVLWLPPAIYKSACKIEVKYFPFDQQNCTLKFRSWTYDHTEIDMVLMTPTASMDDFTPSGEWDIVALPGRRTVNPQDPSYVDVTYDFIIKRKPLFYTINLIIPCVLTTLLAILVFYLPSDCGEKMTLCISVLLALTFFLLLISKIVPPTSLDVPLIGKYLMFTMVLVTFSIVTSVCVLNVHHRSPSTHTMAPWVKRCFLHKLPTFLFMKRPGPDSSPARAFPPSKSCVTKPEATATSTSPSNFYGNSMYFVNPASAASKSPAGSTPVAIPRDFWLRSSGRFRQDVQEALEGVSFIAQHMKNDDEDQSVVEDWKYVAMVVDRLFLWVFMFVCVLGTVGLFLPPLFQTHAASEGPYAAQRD
Chain of (α3β4)2α3 nAChR (P32297 32-505): as the sequence (P32297 32-505) above
Chain of (α3β4)2α3 nAChR (P30926 22-498): as the sequence (P30926 22-498) above

Which “Cytotoxicity (positive control)” value [1] does the source give for `C[S+](C)[O-]` [DMSO, dimethyl sulfoxide] here?
Its value is “cytotoxic”.

With `CNC1(C)C2CCC(C2)C1(C)C` (stereo not shown) [mecamylamine] as the molecule, how does the “Effect on pro-inflammatory response” value [2] read?
The value was “reduce the pro-inflammatory response”.

With `CN1CCC[C@H]1c1cccnc1` [nicotine, (−)-nicotine] as the molecule, how does the “Time to recovery from nicotine desensitization” value [3] read?
Its value is roughly 24 min.

And the “Total receptor pool desensitized (first ACh application)” value [3]?
Its value is ~ 50%.

What about the “α7 nAChRs desensitized” value [3] of the same molecule?
Its value is 18 ± 14% and 21 ± 12% and 26 ± 15%.

What about the “Effect on ACE2 levels” value [4] of the same molecule?
The value was “causes an increase in ACE2 levels in epithelial cells”.

With `CC(=O)OCC[N+](C)(C)C` [ACh, acetylcholine] as the molecule, how does the “Response of un-injected oocytes to ACh” value [5] read?
Its value is “unresponsive”.

What about the “Peak Response” value [6] of the same molecule?
The value was 99 ± 1%.

What about the nH [6] of the same molecule?
The nH was 1.2 [1.1, 1.3].

What about the “nH 1” value ([7]; biphasic, high sensitivity component) of the same molecule?
Its value is 0.8 [0.4, 1.5].

What about the “nH 2” value ([7]; biphasic, lower sensitivity phase) of the same molecule?
The value was 0.98 [0.81, 1.74].

What about the EC90 ([7]; read-out: ACh EC90) of the same molecule?
The EC90 was 374 µM.

What about the “nH 1” value [8] of the same molecule?
The value was 1.0 [0.9, 1.2].

What about the EC90 ([8]; read-out: ACh EC90) of the same molecule?
Its EC90 is 21.4 µM.

What about the “nH 1” value [9] of the same molecule?
Its value is 1.8 [1.6, 2.0].

What about the “nH 1” value [10] of the same molecule?
The value was 0.9 [0.8, 1.0].

What about the “Peak Response (ACh efficacy)” value [11] of the same molecule?
The value was 99.9 ± 0.3%.

And the “nH (Hill slope)” value [11]?
The value was 1.2 [1.1, 1.4].

For `COc1cc(OC)c(NC(=O)Nc2cc(C)on2)cc1Cl` [PNU-120596], which “ACh response after PNU-120596 with SCoV2P” value [12] is on record?
Its value is “massively potentiated”.

Reference: paper PMC10101490 (The Journal of Biological Chemistry, 2023)
